Experimental data from ChEMBL document CHEMBL4806968, “Hipk inhibitors and methods of use thereof” (2020).
One block for each compound: values may come before it.

Legend:
[1] = molecular target: Tyrosine-protein kinase Lyn (Homo sapiens) (UniProt P07948); test: Inhibition of LYNB (unknown origin) at 0.5 uM relative to control
[2] = molecular target: Vascular endothelial growth factor receptor 3 (Homo sapiens) (UniProt P35916); test: Inhibition of FLT4 (unknown origin) at 0.5 uM relative to control
Vascular endothelial growth factor receptor 3 (Homo sapiens), sequence (P35916 whole entry): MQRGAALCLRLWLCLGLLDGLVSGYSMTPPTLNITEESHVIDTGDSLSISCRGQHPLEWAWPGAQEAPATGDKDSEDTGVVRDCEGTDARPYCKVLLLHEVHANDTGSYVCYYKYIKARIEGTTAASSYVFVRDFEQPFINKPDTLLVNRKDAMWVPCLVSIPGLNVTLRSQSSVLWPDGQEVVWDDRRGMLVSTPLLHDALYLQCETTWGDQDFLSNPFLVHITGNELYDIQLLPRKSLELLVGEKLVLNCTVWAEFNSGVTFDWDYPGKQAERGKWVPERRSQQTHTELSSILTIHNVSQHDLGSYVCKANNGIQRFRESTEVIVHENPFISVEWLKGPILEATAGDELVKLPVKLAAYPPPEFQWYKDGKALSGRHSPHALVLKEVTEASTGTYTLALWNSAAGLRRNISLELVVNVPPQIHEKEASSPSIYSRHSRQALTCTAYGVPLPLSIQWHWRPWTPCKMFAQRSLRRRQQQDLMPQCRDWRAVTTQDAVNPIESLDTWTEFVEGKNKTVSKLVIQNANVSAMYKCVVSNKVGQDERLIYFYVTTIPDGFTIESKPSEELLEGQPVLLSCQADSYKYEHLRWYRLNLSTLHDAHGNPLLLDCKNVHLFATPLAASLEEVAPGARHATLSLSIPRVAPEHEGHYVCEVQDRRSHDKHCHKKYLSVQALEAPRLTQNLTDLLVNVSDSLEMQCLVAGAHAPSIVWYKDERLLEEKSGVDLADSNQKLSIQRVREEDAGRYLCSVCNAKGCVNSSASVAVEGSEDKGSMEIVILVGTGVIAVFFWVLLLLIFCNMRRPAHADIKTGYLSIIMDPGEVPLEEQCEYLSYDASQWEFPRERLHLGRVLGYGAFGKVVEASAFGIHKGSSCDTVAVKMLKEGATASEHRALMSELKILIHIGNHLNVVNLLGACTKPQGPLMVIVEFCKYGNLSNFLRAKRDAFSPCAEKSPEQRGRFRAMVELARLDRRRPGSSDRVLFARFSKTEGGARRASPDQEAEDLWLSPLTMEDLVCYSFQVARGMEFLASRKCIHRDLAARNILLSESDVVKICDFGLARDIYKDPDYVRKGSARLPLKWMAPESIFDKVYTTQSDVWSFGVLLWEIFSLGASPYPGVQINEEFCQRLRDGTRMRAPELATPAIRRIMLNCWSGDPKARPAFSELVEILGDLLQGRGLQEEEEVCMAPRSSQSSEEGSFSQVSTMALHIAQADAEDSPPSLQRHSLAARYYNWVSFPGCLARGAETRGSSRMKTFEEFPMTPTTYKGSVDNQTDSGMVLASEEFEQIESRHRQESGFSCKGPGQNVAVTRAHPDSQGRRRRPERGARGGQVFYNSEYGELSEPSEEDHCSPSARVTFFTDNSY

[3] = molecular target: Ephrin type-B receptor 3 (Homo sapiens) (UniProt P54753); test: Inhibition of EPHB3 (unknown origin) at 0.5 uM relative to control
[4] = molecular target: Serine/threonine-protein kinase TAO2 (Homo sapiens) (UniProt Q9UL54); test: Inhibition of TAOK2 (unknown origin) at 0.5 uM relative to control
Serine/threonine-protein kinase TAO2 (Homo sapiens), sequence (Q9UL54 whole entry): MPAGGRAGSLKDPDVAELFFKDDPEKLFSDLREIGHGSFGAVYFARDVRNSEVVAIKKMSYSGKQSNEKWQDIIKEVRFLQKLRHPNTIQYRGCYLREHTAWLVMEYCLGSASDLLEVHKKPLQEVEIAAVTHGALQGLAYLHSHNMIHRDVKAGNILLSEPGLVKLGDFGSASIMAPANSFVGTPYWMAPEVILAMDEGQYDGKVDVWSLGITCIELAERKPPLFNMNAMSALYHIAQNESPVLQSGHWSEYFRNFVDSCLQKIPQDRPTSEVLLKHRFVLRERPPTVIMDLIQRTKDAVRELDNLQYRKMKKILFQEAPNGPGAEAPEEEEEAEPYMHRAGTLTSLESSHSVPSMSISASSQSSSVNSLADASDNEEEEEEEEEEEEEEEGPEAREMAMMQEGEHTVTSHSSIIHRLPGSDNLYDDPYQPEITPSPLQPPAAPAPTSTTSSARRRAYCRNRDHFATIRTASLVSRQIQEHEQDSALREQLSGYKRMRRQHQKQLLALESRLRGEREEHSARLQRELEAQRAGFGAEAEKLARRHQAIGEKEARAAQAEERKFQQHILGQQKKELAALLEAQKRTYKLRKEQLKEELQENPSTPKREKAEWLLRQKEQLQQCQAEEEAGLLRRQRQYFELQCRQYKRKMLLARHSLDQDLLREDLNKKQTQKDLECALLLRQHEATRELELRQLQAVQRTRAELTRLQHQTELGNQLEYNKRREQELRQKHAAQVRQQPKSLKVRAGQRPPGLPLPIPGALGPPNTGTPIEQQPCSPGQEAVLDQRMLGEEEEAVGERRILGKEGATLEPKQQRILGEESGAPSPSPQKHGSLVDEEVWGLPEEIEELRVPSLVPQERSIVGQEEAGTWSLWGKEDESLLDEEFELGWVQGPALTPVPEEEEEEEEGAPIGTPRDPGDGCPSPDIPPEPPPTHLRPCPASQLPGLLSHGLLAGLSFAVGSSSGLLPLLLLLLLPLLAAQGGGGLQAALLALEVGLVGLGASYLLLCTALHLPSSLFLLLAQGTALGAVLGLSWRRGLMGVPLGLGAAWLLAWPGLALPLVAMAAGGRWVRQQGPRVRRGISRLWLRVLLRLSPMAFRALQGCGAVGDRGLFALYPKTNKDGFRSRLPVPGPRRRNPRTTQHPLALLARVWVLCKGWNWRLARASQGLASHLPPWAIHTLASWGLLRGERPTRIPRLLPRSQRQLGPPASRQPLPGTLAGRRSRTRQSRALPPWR

[5] = molecular target: Ephrin type-A receptor 2 (Homo sapiens) (UniProt P29317); test: Inhibition of EPHA2 (unknown origin) at 0.5 uM relative to control
Ephrin type-A receptor 2 (Homo sapiens), sequence (P29317 whole entry): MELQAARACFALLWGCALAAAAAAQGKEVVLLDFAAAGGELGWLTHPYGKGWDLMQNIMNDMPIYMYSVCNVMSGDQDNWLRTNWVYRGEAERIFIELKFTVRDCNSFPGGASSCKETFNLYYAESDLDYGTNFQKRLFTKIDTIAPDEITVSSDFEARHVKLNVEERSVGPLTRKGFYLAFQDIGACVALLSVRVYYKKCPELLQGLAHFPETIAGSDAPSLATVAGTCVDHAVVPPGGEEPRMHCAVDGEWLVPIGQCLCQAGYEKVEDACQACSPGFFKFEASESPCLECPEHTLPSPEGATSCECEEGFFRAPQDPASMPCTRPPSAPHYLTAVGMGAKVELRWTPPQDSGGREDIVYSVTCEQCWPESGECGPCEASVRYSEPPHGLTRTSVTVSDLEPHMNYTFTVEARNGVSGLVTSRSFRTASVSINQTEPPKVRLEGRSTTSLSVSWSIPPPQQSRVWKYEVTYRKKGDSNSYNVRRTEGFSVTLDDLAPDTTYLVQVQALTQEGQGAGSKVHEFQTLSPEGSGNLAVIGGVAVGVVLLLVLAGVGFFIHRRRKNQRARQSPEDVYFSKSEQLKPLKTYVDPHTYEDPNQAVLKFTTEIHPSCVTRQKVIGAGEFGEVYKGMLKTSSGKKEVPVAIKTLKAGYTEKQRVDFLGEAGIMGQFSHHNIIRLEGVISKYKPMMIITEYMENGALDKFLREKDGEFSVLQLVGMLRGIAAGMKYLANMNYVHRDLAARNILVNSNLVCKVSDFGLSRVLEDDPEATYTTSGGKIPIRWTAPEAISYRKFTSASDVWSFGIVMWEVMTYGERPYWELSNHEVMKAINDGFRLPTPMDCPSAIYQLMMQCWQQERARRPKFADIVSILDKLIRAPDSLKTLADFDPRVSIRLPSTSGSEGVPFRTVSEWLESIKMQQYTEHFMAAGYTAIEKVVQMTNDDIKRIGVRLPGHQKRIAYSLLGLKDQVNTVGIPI

[6] = molecular target: Non-receptor tyrosine-protein kinase TNK1 (Homo sapiens) (UniProt Q13470); test: Inhibition of TNK1 (unknown origin) at 0.5 uM relative to control
[7] = molecular target: Mitogen-activated protein kinase kinase kinase 9 (Homo sapiens) (UniProt P80192); test: Inhibition of MLK1 (unknown origin) at 0.5 uM relative to control
[8] = molecular target: Tyrosine-protein kinase JAK2 (Homo sapiens) (UniProt O60674); test: Inhibition of JAK2 (unknown origin) at 0.5 uM relative to control
Tyrosine-protein kinase JAK2 (Homo sapiens), sequence (O60674 whole entry): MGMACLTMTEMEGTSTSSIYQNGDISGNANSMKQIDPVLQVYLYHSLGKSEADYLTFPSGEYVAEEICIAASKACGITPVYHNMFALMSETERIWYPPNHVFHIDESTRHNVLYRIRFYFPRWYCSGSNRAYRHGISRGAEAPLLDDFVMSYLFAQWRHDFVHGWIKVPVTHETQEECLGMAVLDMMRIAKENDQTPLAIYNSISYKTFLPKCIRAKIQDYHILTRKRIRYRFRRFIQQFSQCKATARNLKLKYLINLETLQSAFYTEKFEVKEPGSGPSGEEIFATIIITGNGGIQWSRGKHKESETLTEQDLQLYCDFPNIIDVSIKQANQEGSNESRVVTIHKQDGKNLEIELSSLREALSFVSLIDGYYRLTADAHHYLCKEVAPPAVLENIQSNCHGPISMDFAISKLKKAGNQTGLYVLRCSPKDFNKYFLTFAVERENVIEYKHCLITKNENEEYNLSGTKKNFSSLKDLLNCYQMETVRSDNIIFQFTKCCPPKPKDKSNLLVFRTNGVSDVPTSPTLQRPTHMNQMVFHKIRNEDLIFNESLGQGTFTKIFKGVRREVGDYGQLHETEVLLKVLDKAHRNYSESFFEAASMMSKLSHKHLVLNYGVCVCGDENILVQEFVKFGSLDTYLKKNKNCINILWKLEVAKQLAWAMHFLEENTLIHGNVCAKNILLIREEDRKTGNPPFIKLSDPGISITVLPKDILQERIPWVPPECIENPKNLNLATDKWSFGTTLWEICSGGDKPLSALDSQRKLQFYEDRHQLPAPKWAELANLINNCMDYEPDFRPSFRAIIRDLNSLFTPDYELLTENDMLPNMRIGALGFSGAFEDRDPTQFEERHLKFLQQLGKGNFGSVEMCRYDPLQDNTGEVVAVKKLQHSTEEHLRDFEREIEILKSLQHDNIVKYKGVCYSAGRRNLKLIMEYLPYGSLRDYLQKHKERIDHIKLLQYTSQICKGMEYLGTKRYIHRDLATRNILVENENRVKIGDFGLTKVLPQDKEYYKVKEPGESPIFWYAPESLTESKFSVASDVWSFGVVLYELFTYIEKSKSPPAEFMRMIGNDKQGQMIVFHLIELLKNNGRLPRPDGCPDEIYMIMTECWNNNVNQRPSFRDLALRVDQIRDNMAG

[9] = molecular target: Dual specificity mitogen-activated protein kinase kinase 4 (Homo sapiens) (UniProt P45985); test: Inhibition of MAP2K4 (unknown origin) at 0.5 uM relative to control
Dual specificity mitogen-activated protein kinase kinase 4 (Homo sapiens), sequence (P45985 whole entry): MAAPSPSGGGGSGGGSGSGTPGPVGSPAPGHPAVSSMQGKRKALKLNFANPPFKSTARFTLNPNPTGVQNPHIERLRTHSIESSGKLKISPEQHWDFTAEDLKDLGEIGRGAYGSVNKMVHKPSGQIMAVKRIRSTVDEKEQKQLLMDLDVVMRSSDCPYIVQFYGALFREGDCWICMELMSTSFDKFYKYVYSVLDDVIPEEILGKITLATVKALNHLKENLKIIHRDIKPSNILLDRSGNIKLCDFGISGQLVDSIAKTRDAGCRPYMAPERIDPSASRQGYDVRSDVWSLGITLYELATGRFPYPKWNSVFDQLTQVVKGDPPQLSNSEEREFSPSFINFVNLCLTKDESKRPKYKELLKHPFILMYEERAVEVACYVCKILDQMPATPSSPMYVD

[10] = molecular target: Fibroblast growth factor receptor 2 (Homo sapiens) (UniProt P21802); test: Inhibition of FGFR2 (unknown origin) at 0.5 uM relative to control
[11] = molecular target: MAP kinase-interacting serine/threonine-protein kinase 1 (Homo sapiens) (UniProt Q9BUB5); test: Inhibition of MNK1 (unknown origin) at 0.5 uM relative to control
[12] = molecular target: Serine/threonine-protein kinase MARK1 (Homo sapiens) (UniProt Q9P0L2); test: Inhibition of MARK1 (unknown origin) at 0.5 uM relative to control
[13] = molecular target: Platelet-derived growth factor receptor alpha (Homo sapiens) (UniProt P16234); test: Inhibition of PDGFR-alpha (unknown origin) at 0.5 uM relative to control

Compound: CNC(=O)c1cc(Oc2ccc(NC(=O)c3nc(SC)[nH]c3-c3ccc(F)cc3)cc2)ccn1
- inhibition [1]: 93%

Compound: CSc1nc(C(=O)Nc2ccc(Oc3cc4cnn(C)c4cc3Br)cc2)c(-c2ccc(F)cc2)o1
- inhibition [5]: 25%
- inhibition [6]: 23%
- inhibition [7]: 28%
- inhibition [8]: 14%
- inhibition [9]: 16%

Compound: CNC(=O)c1cc(Oc2ccc(NC(=O)c3n[nH]nc3-c3ccc(F)cc3)cc2)ccn1
- inhibition [11]: 54%

Compound: CNC(=O)c1cc(Oc2ccc(NC(=O)c3nc(SC)n(CCN(C)C)c3-c3ccc(F)cc3)cc2)ccn1
- inhibition [12]: 44%
- inhibition [13]: 44%

More lines, now with the values ahead:

- inhibition [2]: 25%
- inhibition [3]: 23%
Compound: CNC(=O)c1cc(Oc2ccc(NC(=O)c3nc(C(F)(F)F)sc3-c3ccc(F)cc3)cc2)ccn1

- inhibition [4]: 44%
Compound: CNC(=O)c1cc(Oc2ccc(NC(=O)c3nc(NC)sc3-c3ccc(F)cc3)cc2)ccn1

- inhibition [10]: 11%
Compound: CNC(=O)c1cc(Oc2ccc(NC(=O)c3nc(S(C)(=O)=O)sc3-c3ccc(F)cc3)cc2)ccn1
